pIC50, pKi: −log10 of the molar value.
Biological target: Collagenase 3 (Homo sapiens) (UniProt P45452)
Test: potency against MMP13, MMP2, MMP3, MMP14 – biochemical, probe development, late stage results, selectivity assay for MMP13 inhibitor project, late-stage follow-up (AID 2067)
Settings: recombinant MMP panel, fTHP FRET substrate cleavage, MMP-13; for pKi: Ki assay, MMP-13 Ki, Lineweaver-Burk

pIC50 | pKi | SMILES
5.47 | 5.42 | O=c1[nH]c(SCc2ccc(Cl)cc2)nc2c1CCC2
5.55 | 5.82 | COC(=O)c1ccc(CSc2nc3c(c(=O)[nH]2)CCC3)cc1
5.61 | 6.08 | Cc1ccc(CSc2nc3c(c(=O)[nH]2)CCC3)cc1

Reference: PubChem BioAssay AID2067 (The Scripps Research Institute Molecular Screening Center, 2009)
